Data on seven compounds can be found in US20140018552A1, “USE OF COMPOUNDS ISOLATED FROM MORUS BARK” (Dong Wha Pharm. Co., Ltd., priority 2011, published 2014).

≈ marks a conversion by molar mass, not a printed value.

For the test, the system named is AGE production. The experiment in a line: Assay of inhibition effect on AGE production (BSA with fructose and glucose, fluorescence analysis). The format is biochemical, bovine. Particulars: 10 mg/ml BSA, 0.2 M fructose and glucose, 37° for 7 days; fluorescence Ex 360 nm/Em 465 nm; average ± standard deviation. On the procedure: After preparing 10 mg/ml bovine serum albumin (BSA) dissolved in 50 mM of phosphate buffer (pH 7.4), AGE production was induced by culturing the mixture of 0.2 M of fructose and glucose at 37 °C for 7 days. The compounds extracted from Morus Bark and prepared from Example 1 to 8 was handled in the concentration of 0.1 μg/Ml respectively. (All the compounds were dissolved in 100% of ethanol.) Pyridoxamine known for AGE inhibitor was used as a positive control group. AGE production was induced by using only fructose and glucose to BSA culturing at 37 °C for 7 days. It was handled in the concentration of 0.1 μg/Ml to 1000 μg/Ml.
After 7 days, the amount of AGE produced in culture medium was measured by using microplate reader (Excitation: 360 nm, Emission: 465 nm, fluorescence analysis).
The rate of inhibiting the production was counted by the following numerical formula. […] Also, the average and standard deviation of IC50 value were calculated from at least 3 independent experiments.
The rate of inhibiting the production (%)=100−(Fluorescence intensity of Experimental group−Fluorescence intensity of Reference)/(Fluorescence intensity of Control group−Fluorescence intensity of Control-Reference)×100
On to `O=C1CC(c2ccc(O)cc2O)Oc2cc(O)cc(O)c21` (centres unmarked) [Example. 6, 2′,4′,5,7-tetrahydroxyflavanone], for which inhibition was half-maximal at 96.2 ± 10.1 µM (IC50) and the “IC50 value” came to 27.7 ± 2.9 µg/mL (≈ 96.1 µM).
Taken in the same sequence, the figures for `CC12CC(c3ccc(O)cc3O1)C13OC1(c1ccc(O)cc1O)Oc1cc(/C=C/c4ccc(O)cc4O)cc(O)c1C3C2=O` (centres unmarked) [Example. 4, Kuwanon Z] were 46.1 ± 11.8 µM and 27.4 ± 7.0 µg/mL (≈ 46.1 µM).
Consider `CC1=C[C@H]2c3c(O)cc(-c4cc5ccc(O)cc5o4)cc3O[C@@]3(c4ccc(O)cc4O)Oc4cc(O)ccc4[C@H](C1)[C@@H]23` [Example. 1, Mulberrofuran G], for which it took 79.5 ± 19.4 µM to reach half-maximal inhibition (IC50) and the “IC50 value” turned out to be 44.7 ± 10.9 µg/mL (≈ 79.5 µM).
Regarding `O=C1c2c(O)cc(O)cc2OC(c2ccc(O)cc2O)C1O` (centres unmarked) [Example. 8, Dihydromorin], the IC50 amounted to 81.9 ± 3.3 µM and the “IC50 value” turned out to be 24.9 ± 1.0 µg/mL (≈ 81.8 µM).
Regarding `Oc1cc(O)cc(/C=C/c2ccc(O)cc2O)c1` [Example. 5, Oxyresveratrol], the half-inhibitory concentration (IC50) worked out at 19.3 ± 4.1 µM and the “IC50 value” is 4.7 ± 1.0 µg/mL (≈ 19.2 µM).
For `CC(C)(O)CCc1c(-c2ccc(O)cc2O)oc2cc3c(c(O)c2c1=O)C=CC(C)(C)O3` [Example. 7, Morusignin L], the IC50 was determined as 160 ± 16.7 µM and the “IC50 value” worked out at 70.1 ± 7.3 µg/mL (≈ 160 µM).
Turning to `Cc1ncc(CO)c(CN)c1O` [Pyridoxamine, reference compound], 747 ± 213 µM corresponded to half-maximal inhibition (IC50) and the “IC50 value” was determined as 125.7 ± 35.8 µg/mL (≈ 747 µM).
